Measured values: patent publication US10702521B2, “Methods for treating neisseria gonorrhoeae infection with substituted 1,2-dihydro-2A,5,8A-triazaacenaphthylene-3,8-diones” (priority 2014, dated 2020)
Where a name gives a salt, the structure may show the parent alone. Read-outs that look alike come from different tables or passages of the source.

Assays:
[1] = tested on: Mycobacterium tuberculosis H37Rv; experiment: Mycobacterium tuberculosis H37Rv Inhibition Assay (resazurin MIC); format: cell-based; conditions: H37Rv strain, six days incubation, resazurin fluorescence after 48 hours, read-out: MIC value
[2] = Estimation of PK parameters from blood samples in mice; format: in vivo; conditions: estimated
Procedure: In one study, blood samples were collected terminally from a separate group of mice at 1, 2, 6 and 12 hours post Example 39 administration (n=3 per time point and dose) to allow for estimation of PK parameters.

[3] = tested on: N. gonorrhoeae MS11; experiment: Mouse model of N. gonorrhoeae vaginal colonization; format: in vivo, mice; conditions: for mice in which colonization with N. gonorrhoeae MS11 was eliminated by the end of the study: two studies
Procedure: A mouse model of N. gonorrhoeae vaginal colonization was performed to evaluate the efficacy of compounds of the present invention. Two independent studies were performed by the same laboratory.
In particular, Example 39 (i.e., (2R)-2-({4-[(3,4-Dihydro-2H-pyrano[2,3-c]pyridin-6-ylmethyl)amino]-1-piperidinyl}methyl)-1,2-dihydro-3H, 8H-2a,5,8a-triazaacenaphthylene-3,8-dione hydrochloride) was tested in this model following a single oral dose or a total of two oral doses administered on the same day. Female mice were primed for colonization using estradiol; trimethoprim sulfate and streptomycin were administered to control commensals. On day 0, mice were inoculated intravaginally with N. gonorrhoeae MS11 (Example 39—MIC 1 μg/ml). Successful colonization was confirmed via vaginal swab culture on days 1 and 2. Single oral doses at 100 mg/kg and 200 mg/kg or a total of two oral doses at 100 mg/kg each of Example 39 were administered on day 2. Vaginal swabs for quantitative culture were collected daily through day 10 (8 days post treatment).

[4] = tested on: Neisseria gonorrhoeae; experiment: In vitro MIC by CLSI agar dilution against Neisseria gonorrhoeae isolates; format: cell-based; conditions: for MIC90: Neisseria gonorrhoeae
[5] = tested on: N. gonorrhoeae MS11; experiment: MIC / susceptibility of N. gonorrhoeae MS11 (strain of the mouse model); format: cell-based, Neisseria gonorrhoeae
[6] = tested on: Staphylococcus aureus, Streptococcus pneumoniae, Streptococcus pyogenes, Enterococcus faecalis, Enterococcus faecium, Haemophilus influenzae, Moraxella …; experiment: Antimicrobial Activity Assay: whole-cell MIC by broth microdilution (CLSI M7-A7); format: cell-based, Gram-positive and Gram-negative organisms; conditions: against a strain of at least one of the organisms listed
Procedure: Whole-cell antimicrobial activity was determined by broth microdilution using the Clinical and Laboratory Standards Institute (CLSI) recommended procedure, Document M7-A7, “Methods for Dilution Susceptibility Tests for Bacteria that Grow Aerobically”. The compounds were tested in serial two-fold dilutions ranging from 0.016 to 16 mcg/ml.
The minimum inhibitory concentration (MIC) was determined as the lowest concentration of compound that inhibited visible growth. A mirror reader was used to assist in determining the MIC endpoint.
Compounds were evaluated against Gram-positive organisms, selected from Staphylococcus aureus, Streptococcus pneumoniae, Streptococcus pyogenes, Enterococcus faecalis and Enterococcus faecium.
In addition, compounds were evaluated against Gram-negative organisms selected from Haemophilus influenzae, Moraxella catarrhalis, Escherichia coli, Pseudomonas aeruginosa, Proteus mirabilis, Enterobacter cloacae, Enterobacter aerogenes, Klebsiella pneumoniae and Stenotrophomonas maltophilia.

SMILES | MIC [1] | fAUC0-24 ([2]; single oral dose of 100 mg/kg) | fAUC0-24 ([2]; single oral dose of 200 mg/kg) | fAUC0-24 ([2]; two 100 mg/kg oral doses on the same day) | course of colonization after initial clearance ([3]; first study, one mouse in each dose group, not observed in the follow-up study) | mice in which colonization with N. gonorrhoeae MS11 was eliminated by the end of the study ([3]; single oral dose of 100 mg/kg on day 2) | mice in which colonization with N. gonorrhoeae MS11 was eliminated by the end of the study ([3]; single oral dose of 200 mg/kg on day 2) | mice in which colonization with N. gonorrhoeae MS11 was eliminated by the end of the study ([3]; two 100 mg/kg oral doses administered on the same day) | MIC90 fold higher than that of ceftriaxone ([4]; 30 isolates of N. gonorrhoeae) | MIC90 fold lower than ciprofloxacin ([4]; 30 isolates of N. gonorrhoeae) | MIC90 ([4]; 30 isolates of N. gonorrhoeae collected 2003 through 2007, read-out: MIC90 (MIC which inhibits 90% of the isolates tested)) | MIC90 ([4]; second study, all 145 isolates of N. gonorrhoeae, majority collected in 2013, read-out: MIC90) | MIC90 ([4]; second study, subset of 37 ciprofloxacin-nonsusceptible isolates, read-out: MIC90) | modal value (MIC) ([4]; against the 9 ciprofloxacin-resistant N. gonorrhoeae tested) | MIC ([5]; Neisseria gonorrhoeae, N. gonorrhoeae MS11) | change in susceptibility of N. gonorrhoeae MS11 colonies recovered from treated mice ([5]; compared with stock cultures of the organism) | MIC [6]
O=c1ccc2ncc(=O)n3c2n1C[C@H]3CN1CCC(NCc2cc3c(cn2)OCCC3)CC1 [Example 39, (2R)-2-({4-[(3,4-Dihydro-2H-pyrano[2,3-c]pyridin-6-ylmethyl)amino]-1-piperidinyl}methyl)-1,2-dihydro-3H,8H-2a,5,8a-triazaacenaphthylene-3,8-dione hydrochloride] | < 2 µg/mL | 8000 ng·h/mL | 22000 ng·h/mL | 16000 ng·h/mL | regrowth to a high number of organisms by the end of the study | 70-80% | 90-100% | 100% | at least 16 fold | at least 8 fold | 0.5 µg/mL | 0.5 µg/mL | 1 µg/mL | remained unchanged | 1 µg/mL | did not demonstrate any change in susceptibility | 
O=c1ccc2ccc(=O)n3c2n1C[C@H]3CN1CCC(NCc2cc3c(cn2)COC3)CC1 [Example 9, (1R)-1-({4-[(1,3-Dihydrofuro[3,4-c]pyridin-6-ylmethyl)amino]-1-piperidinyl}methyl)-1,2-dihydro-4H,9H-imidazo[1,2,3-ij]-1,8-naphthyridine-4,9-dione hydrochloride] |  |  |  |  |  |  |  |  |  |  |  |  |  |  |  |  | ≤ 4 µg/mL
